This passage reports target mRNA inhibition results from the OligoGym collection.

Several values for one entry are separate records, joined by “and”; a condition that tells them apart may be missing. Identical values can stand only once. HELM strings list units from the 5' end as sugar, base in round brackets, then linkage (d deoxyribose, r ribose, m 2'-O-methyl, p phosphodiester). Methylation of C is not given here. [moe] = 2'-O-(2-methoxyethyl) (MOE); [cEt] = constrained ethyl (cEt); [sp] = phosphorothioate linkage

The target of this data set is HBV. The conditions noted are these: ASO.

For the substance “RNA1{[moe](A)[sp].[moe](G)[sp].d(A)[sp].d(T)[sp].d(G)[sp].d(A)[sp].d(G)[sp].d(G)[sp].d(C)[sp].d(A)[sp].d(T)[sp].[moe](A)[sp].[moe](G)[sp].[moe](C)[sp].[moe](A)[sp].[moe](G)}$$$$V2.0”, under “HepG2, 0.07 µM”, the target mRNA inhibition was 62% and 46%.
On to “RNA1{[moe](C)[sp].[moe](G)[sp].[moe](T)[sp].[moe](G)[sp].d(C)[sp].d(A)[sp].d(G)[sp].d(A)[sp].d(G)[sp].d(G)[sp].d(T)[sp].d(G)[sp].d(A)[sp].[moe](A)[sp].[moe](G)[sp].[moe](C)[sp].[moe](G)}$$$$V2.0”, for which, where the note is “HepG2, 0.07 µM”, the target mRNA inhibition is 58% and 43%.
With “RNA1{[moe](T)[sp].[moe](G)[sp].[moe](C)[sp].[moe](A)[sp].d(G)[sp].d(A)[sp].d(G)[sp].d(G)[sp].d(T)[sp].d(G)[sp].d(A)[sp].d(A)[sp].d(G)[sp].[moe](C)[sp].[moe](G)[sp].[moe](A)}$$$$V2.0”, the target mRNA inhibition (HepG2, 0.07 µM) was 60% and 68%.
Regarding “RNA1{[moe](C)[sp].[cEt](G)[sp].[cEt](T)[sp].d(G)[sp].d(C)[sp].d(A)[sp].d(G)[sp].d(A)[sp].d(G)[sp].d(G)[sp].d(T)[sp].d(G)[sp].d(A)[sp].[cEt](A)[sp].[cEt](G)[sp].[moe](C)}$$$$V2.0”, the target mRNA inhibition (HepG2, 0.07 µM) was 68% and 65%.
Take “RNA1{[moe](G)[sp].[moe](G)[sp].[moe](C)[sp].d(A)[sp].d(T)[sp].d(A)[sp].d(G)[sp].d(C)[sp].d(A)[sp].d(G)[sp].d(C)[sp].d(A)[sp].[moe](G)[sp].[moe](G)[sp].[moe](A)[sp].[moe](T)[sp].[moe](G)}$$$$V2.0”: the target mRNA inhibition was 16% (HepG2, 0.0092593 µM); 11% (HepG2, 0.0277778 µM); 68% and 66% (HepG2, 0.07 µM); 40% (HepG2, 0.0833333 µM); 66% (HepG2, 0.25 µM).
With “RNA1{[moe](G)[sp].[moe](T)[sp].d(G)[sp].d(C)[sp].d(A)[sp].d(G)[sp].d(A)[sp].d(G)[sp].d(G)[sp].d(T)[sp].d(G)[sp].[moe](A)[sp].[moe](A)[sp].[moe](G)[sp].[moe](C)[sp].[moe](G)}$$$$V2.0”, the target mRNA inhibition (HepG2, 0.07 µM) is 53% and 42%.
On to “RNA1{[moe](T)[sp].[cEt](G)[sp].d(A)[sp].d(G)[sp].d(A)[sp].d(G)[sp].d(A)[sp].d(A)[sp].d(G)[sp].d(T)[sp].d(C)[sp].d(C)[sp].[cEt](A)[sp].[moe](C)[sp].[cEt](C)[sp].[moe](A)}$$$$V2.0”, for which the target mRNA inhibition (HepG2, 0.07 µM) is 60% and 43%.
As to “RNA1{[moe](A)[sp].[cEt](A)[sp].d(C)[sp].d(C)[sp].d(A)[sp].d(C)[sp].d(T)[sp].d(G)[sp].d(A)[sp].d(A)[sp].d(C)[sp].d(A)[sp].[cEt](A)[sp].[moe](A)[sp].[cEt](T)[sp].[moe](G)}$$$$V2.0”, the target mRNA inhibition (HepG2, 0.07 µM) is 55% and 38%.
Turning to “RNA1{[moe](T)[sp].[moe](G)[sp].d(A)[sp].d(G)[sp].d(G)[sp].d(C)[sp].d(A)[sp].d(T)[sp].d(A)[sp].d(G)[sp].d(C)[sp].[moe](A)[sp].[moe](G)[sp].[moe](C)[sp].[moe](A)[sp].[moe](G)[sp].[moe](G)}$$$$V2.0”, for the setting “HepG2, 0.07 µM”, the target mRNA inhibition is 73% and 72%.
As for “RNA1{[moe](A)[sp].[moe](C)[sp].[moe](T)[sp].d(G)[sp].d(G)[sp].d(A)[sp].d(G)[sp].d(C)[sp].d(C)[sp].d(A)[sp].d(C)[sp].d(C)[sp].[moe](A)[sp].[moe](G)[sp].[moe](C)[sp].[moe](A)[sp].[moe](G)}$$$$V2.0”, the target mRNA inhibition (HepG2, 0.07 µM) is 67% and 65%.
Take “RNA1{[moe](A)[sp].[moe](G)[sp].d(T)[sp].d(T)[sp].d(C)[sp].d(C)[sp].d(G)[sp].d(C)[sp].d(A)[sp].d(G)[sp].d(T)[sp].[moe](A)[sp].[moe](T)[sp].[moe](G)[sp].[moe](G)[sp].[moe](A)[sp].[moe](T)}$$$$V2.0”: the target mRNA inhibition (HepG2, 0.07 µM) is 68% and 70%.
“RNA1{[moe](C)[sp].[moe](C)[sp].[moe](A)[sp].[moe](A)[sp].d(T)[sp].d(T)[sp].d(T)[sp].d(A)[sp].d(T)[sp].d(G)[sp].d(C)[sp].d(C)[sp].d(T)[sp].[moe](A)[sp].[moe](C)[sp].[moe](A)[sp].[moe](G)}$$$$V2.0”: the target mRNA inhibition (HepG2, 0.07 µM) was 34% and 11%.
As to “RNA1{[moe](C)[sp].[moe](G)[sp].[moe](A)[sp].[moe](A)[sp].[moe](C)[sp].d(C)[sp].d(A)[sp].d(C)[sp].d(T)[sp].d(G)[sp].d(A)[sp].d(A)[sp].d(C)[sp].d(A)[sp].[moe](A)[sp].[moe](A)}$$$$V2.0”, the target mRNA inhibition (HepG2, 0.07 µM) is 36% and 19%.
For “RNA1{[moe](A)[sp].[cEt](G)[sp].[cEt](A)[sp].d(A)[sp].d(G)[sp].d(T)[sp].d(C)[sp].d(C)[sp].d(A)[sp].d(C)[sp].d(C)[sp].d(A)[sp].d(C)[sp].[cEt](G)[sp].[cEt](A)[sp].[moe](G)}$$$$V2.0”, where the note is “HepG2, 0.07 µM”, the target mRNA inhibition is 58% and 48%.
On to “RNA1{[moe](C)[sp].[moe](C)[sp].d(A)[sp].d(A)[sp].d(T)[sp].d(T)[sp].d(T)[sp].d(A)[sp].d(T)[sp].d(G)[sp].d(C)[sp].[moe](C)[sp].[moe](T)[sp].[moe](A)[sp].[moe](C)[sp].[moe](A)[sp].[moe](G)}$$$$V2.0”, for which the target mRNA inhibition (HepG2, 0.07 µM) is 41% and 42%.
Still for that read-out and setting: then “RNA1{[moe](T)[sp].[cEt](T)[sp].[cEt](T)[sp].d(A)[sp].d(T)[sp].d(G)[sp].d(C)[sp].d(C)[sp].d(T)[sp].d(A)[sp].d(C)[sp].d(A)[sp].d(G)[sp].[cEt](C)[sp].[cEt](C)[sp].[moe](T)}$$$$V2.0”, with 55% and 49%; and “RNA1{[moe](A)[sp].[cEt](C)[sp].d(C)[sp].d(A)[sp].d(C)[sp].d(T)[sp].d(G)[sp].d(A)[sp].d(A)[sp].d(C)[sp].d(A)[sp].d(A)[sp].[cEt](A)[sp].[moe](T)[sp].[cEt](G)[sp].[moe](G)}$$$$V2.0”, with 75% and 64%.
For the substance “RNA1{[moe](A)[sp].[moe](G)[sp].d(A)[sp].d(G)[sp].d(G)[sp].d(T)[sp].d(G)[sp].d(A)[sp].d(A)[sp].d(G)[sp].d(C)[sp].[moe](G)[sp].[moe](A)[sp].[moe](A)[sp].[moe](G)[sp].[moe](T)}$$$$V2.0”, under “HepG2, 0.07 µM”, the target mRNA inhibition is 40% and 48%.
Still for that read-out and setting: then “RNA1{[moe](T)[sp].[moe](T)[sp].[moe](T)[sp].d(A)[sp].d(T)[sp].d(G)[sp].d(C)[sp].d(C)[sp].d(T)[sp].d(A)[sp].d(C)[sp].d(A)[sp].[moe](G)[sp].[moe](C)[sp].[moe](C)[sp].[moe](T)}$$$$V2.0”, with 51% and 38%; and “RNA1{[moe](G)[sp].[moe](G)[sp].[moe](T)[sp].[moe](G)[sp].[moe](A)[sp].d(A)[sp].d(G)[sp].d(C)[sp].d(G)[sp].d(A)[sp].d(A)[sp].d(G)[sp].d(T)[sp].d(G)[sp].[moe](C)[sp].[moe](A)}$$$$V2.0”, with 51% and 46%; and “RNA1{[moe](A)[sp].[moe](G)[sp].[moe](A)[sp].d(G)[sp].d(G)[sp].d(T)[sp].d(G)[sp].d(A)[sp].d(A)[sp].d(G)[sp].d(C)[sp].d(G)[sp].d(A)[sp].[cEt](A)[sp].[cEt](G)[sp].[cEt](T)}$$$$V2.0”, with 69% and 74%.
Consider “RNA1{[moe](C)[sp].[moe](G)[sp].[moe](G)[sp].d(G)[sp].d(C)[sp].d(A)[sp].d(A)[sp].d(C)[sp].d(A)[sp].d(T)[sp].d(A)[sp].d(C)[sp].d(C)[sp].[cEt](T)[sp].[cEt](T)[sp].[cEt](G)}$$$$V2.0”, for which, for the setting “HepG2, 0.07 µM”, the target mRNA inhibition was 56% and 65%.
“RNA1{[moe](C)[sp].[moe](G)[sp].[moe](C)[sp].[moe](A)[sp].[moe](G)[sp].d(T)[sp].d(A)[sp].d(T)[sp].d(G)[sp].d(G)[sp].d(A)[sp].d(T)[sp].d(C)[sp].d(G)[sp].[moe](G)[sp].[moe](C)[sp].[moe](A)}$$$$V2.0”: where the note is “HepG2, 0.07 µM”, the target mRNA inhibition was 56% and 57%.
Take “RNA1{[moe](A)[sp].[cEt](A)[sp].[cEt](G)[sp].d(A)[sp].d(A)[sp].d(G)[sp].d(A)[sp].d(T)[sp].d(G)[sp].d(A)[sp].d(G)[sp].d(G)[sp].d(C)[sp].[cEt](A)[sp].[cEt](T)[sp].[moe](A)}$$$$V2.0”: where the note is “HepG2, 0.07 µM”, the target mRNA inhibition is 62% and 65%.
On the same count and under the same terms, then “RNA1{[moe](G)[sp].[moe](C)[sp].[moe](A)[sp].[moe](C)[sp].[moe](T)[sp].[moe](A)[sp].d(G)[sp].d(T)[sp].d(A)[sp].d(A)[sp].d(A)[sp].d(C)[sp].d(T)[sp].d(G)[sp].d(A)[sp].[moe](G)[sp].[moe](C)}$$$$V2.0”, with 74% and 65%; and “RNA1{[moe](T)[sp].[moe](A)[sp].[moe](T)[sp].[moe](G)[sp].d(C)[sp].d(C)[sp].d(T)[sp].d(A)[sp].d(C)[sp].d(A)[sp].d(G)[sp].d(C)[sp].d(C)[sp].[moe](T)[sp].[moe](C)[sp].[moe](C)}$$$$V2.0”, with 33% and 42%.
Turning to “RNA1{[moe](A)[sp].[cEt](T)[sp].[cEt](G)[sp].d(A)[sp].d(G)[sp].d(G)[sp].d(C)[sp].d(A)[sp].d(T)[sp].d(A)[sp].d(G)[sp].d(C)[sp].d(A)[sp].[cEt](G)[sp].[cEt](C)[sp].[moe](A)}$$$$V2.0”, the target mRNA inhibition (HepG2, 0.0092593 µM) came to 13%; the target mRNA inhibition (HepG2, 0.0277778 µM) was 14%; the target mRNA inhibition (HepG2, 0.07 µM) was 65% and 83%; the target mRNA inhibition (HepG2, 0.0833333 µM) amounted to 55%; the target mRNA inhibition (HepG2, 0.25 µM) was 70%.
Regarding “RNA1{[moe](G)[sp].[moe](T)[sp].[moe](T)[sp].[moe](C)[sp].[moe](C)[sp].[moe](G)[sp].d(C)[sp].d(A)[sp].d(G)[sp].d(T)[sp].d(A)[sp].d(T)[sp].d(G)[sp].d(G)[sp].d(A)[sp].[moe](T)[sp].[moe](C)}$$$$V2.0”, the target mRNA inhibition (HepG2, 0.07 µM) is 74% and 57%.
In the case of “RNA1{[moe](A)[sp].[moe](A)[sp].d(G)[sp].d(A)[sp].d(T)[sp].d(G)[sp].d(A)[sp].d(G)[sp].d(G)[sp].d(C)[sp].d(A)[sp].[moe](T)[sp].[moe](A)[sp].[moe](G)[sp].[moe](C)[sp].[moe](A)[sp].[moe](G)}$$$$V2.0”, the target mRNA inhibition (HepG2, 0.07 µM) was 72% and 68%.
Take “RNA1{[moe](T)[sp].[moe](T)[sp].[moe](T)[sp].[moe](A)[sp].[moe](T)[sp].d(G)[sp].d(C)[sp].d(C)[sp].d(T)[sp].d(A)[sp].d(C)[sp].d(A)[sp].d(G)[sp].d(C)[sp].[moe](C)[sp].[moe](T)}$$$$V2.0”: the target mRNA inhibition (HepG2, 0.07 µM) was 53% and 37%.
